Source: patent US20260085034A1, “N-(BENZHYDRYL)CYCLOALKYLCARBOXAMIDE DERIVATIVES AS INHIBITORS OF GLYCOGEN SYNTHASE 1 (GYS1) AND METHODS OF USE THEREOF” (Maze Therapeutics, Inc., priority 2022, published 2026)

Target: T1, recombinant hGYS1/GN1 protein (Homo sapiens, UniProt P13807)
T1 sequence (P13807 1-737): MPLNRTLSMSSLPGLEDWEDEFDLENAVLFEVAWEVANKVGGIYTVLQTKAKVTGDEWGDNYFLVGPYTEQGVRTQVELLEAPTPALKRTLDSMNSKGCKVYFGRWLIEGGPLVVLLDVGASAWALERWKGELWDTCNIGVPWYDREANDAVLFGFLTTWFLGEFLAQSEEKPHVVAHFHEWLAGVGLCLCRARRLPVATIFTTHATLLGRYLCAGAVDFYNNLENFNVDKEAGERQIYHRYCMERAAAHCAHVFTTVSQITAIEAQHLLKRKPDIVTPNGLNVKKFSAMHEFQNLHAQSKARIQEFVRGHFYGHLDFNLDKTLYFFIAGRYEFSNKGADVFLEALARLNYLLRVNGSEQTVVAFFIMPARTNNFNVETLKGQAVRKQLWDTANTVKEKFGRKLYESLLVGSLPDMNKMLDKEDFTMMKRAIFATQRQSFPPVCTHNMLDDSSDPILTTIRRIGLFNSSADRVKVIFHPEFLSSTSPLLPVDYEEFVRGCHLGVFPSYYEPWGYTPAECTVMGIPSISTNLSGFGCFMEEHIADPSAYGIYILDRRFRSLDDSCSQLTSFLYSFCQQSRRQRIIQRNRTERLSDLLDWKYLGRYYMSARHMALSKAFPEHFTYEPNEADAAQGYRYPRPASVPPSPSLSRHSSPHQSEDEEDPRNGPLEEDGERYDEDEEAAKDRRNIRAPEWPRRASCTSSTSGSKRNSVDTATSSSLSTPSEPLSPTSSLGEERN
T1 sequence (P46976 1-350 partner): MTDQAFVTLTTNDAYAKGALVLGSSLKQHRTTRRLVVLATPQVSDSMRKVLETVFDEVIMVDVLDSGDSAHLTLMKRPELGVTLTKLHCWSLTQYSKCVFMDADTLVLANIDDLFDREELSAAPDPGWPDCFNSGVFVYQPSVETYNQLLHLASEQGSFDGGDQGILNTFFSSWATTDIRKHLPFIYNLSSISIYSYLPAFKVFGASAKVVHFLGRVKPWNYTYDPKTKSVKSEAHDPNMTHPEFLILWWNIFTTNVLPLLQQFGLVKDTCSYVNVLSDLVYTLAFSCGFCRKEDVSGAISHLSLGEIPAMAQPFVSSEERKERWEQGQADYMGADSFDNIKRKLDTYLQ
Assay: GYS1 coupled enzyme assay (PK/LDH)
Assay type: biochemical
Conditions: geometric mean of at least 2 assay runs; NADH absorbance at 340 nm
Procedure, shortened: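 Recombinant hGYS1/GN1 (50 nM) with 0.8 mM UDP-glucose, 0.2% glycogen and 1 mM glucose-6-phosphate in Tris pH 7.5, 2.5% DMSO. UDP formation coupled via PK/LDH to NADH oxidation, read at 340 nm over 10 min. Control-normalized slopes fit to Hill equation; IC50 as geometric mean of ≥2 runs.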

IC50: 0.145 µM
SMILES: CC(C)c1ccc([C@@H](NC(=O)[C@H]2C[C@@H]2F)c2ccn[nH]2)cc1F (single isomer, unassigned) [compound 11]
